Source: patent US9295732B2, “Conjugated TLR7 and/or TLR8 and TLR2 polycationic agonists” (CAYLA, priority 2013, dated 2016)

Legend:
[1] = target: T1, murine TLR7 (Mus musculus, UniProt P58681); assay: HEK-Blue mTLR7 NF-κB/AP-1 SEAP reporter assay; assay type: cell-based; settings: HEK-Blue mTLR7 cells, 10 μg/mL to 10 pg/ml, 24 hours, OD at 655 nm, FIG. 2
T1 construct: host or cells: HEK293 (HEK-Blue™ mTLR7)
T1 sequence (P58681 27-1050): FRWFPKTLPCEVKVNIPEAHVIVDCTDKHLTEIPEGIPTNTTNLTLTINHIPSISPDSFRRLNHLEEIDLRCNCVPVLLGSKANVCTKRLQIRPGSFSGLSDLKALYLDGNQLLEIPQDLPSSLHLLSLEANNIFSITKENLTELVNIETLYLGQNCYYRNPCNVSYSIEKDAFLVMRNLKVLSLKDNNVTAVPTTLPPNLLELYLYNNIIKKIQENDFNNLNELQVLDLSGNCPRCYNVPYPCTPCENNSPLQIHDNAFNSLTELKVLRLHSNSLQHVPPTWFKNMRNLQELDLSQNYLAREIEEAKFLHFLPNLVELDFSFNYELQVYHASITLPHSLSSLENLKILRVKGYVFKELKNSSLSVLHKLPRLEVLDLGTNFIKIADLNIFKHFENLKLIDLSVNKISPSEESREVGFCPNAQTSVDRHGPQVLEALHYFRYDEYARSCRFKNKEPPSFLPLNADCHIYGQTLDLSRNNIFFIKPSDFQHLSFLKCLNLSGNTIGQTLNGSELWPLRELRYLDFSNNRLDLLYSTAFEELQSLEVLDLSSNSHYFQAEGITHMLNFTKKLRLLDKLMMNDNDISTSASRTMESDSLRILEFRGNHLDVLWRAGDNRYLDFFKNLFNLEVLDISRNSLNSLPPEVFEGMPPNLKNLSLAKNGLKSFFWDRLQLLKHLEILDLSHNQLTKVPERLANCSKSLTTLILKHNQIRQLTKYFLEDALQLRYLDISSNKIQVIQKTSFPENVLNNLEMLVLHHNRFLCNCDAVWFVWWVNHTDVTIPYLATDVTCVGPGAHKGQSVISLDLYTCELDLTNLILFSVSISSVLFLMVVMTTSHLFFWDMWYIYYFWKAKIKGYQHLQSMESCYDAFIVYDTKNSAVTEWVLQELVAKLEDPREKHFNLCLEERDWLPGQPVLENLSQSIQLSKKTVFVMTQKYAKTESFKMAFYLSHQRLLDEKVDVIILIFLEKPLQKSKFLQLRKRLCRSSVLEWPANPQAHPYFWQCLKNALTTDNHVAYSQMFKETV
In short: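 HEK293 cells stably expressing the given TLR, or RAW 264.7-derived cells (50,000 or 100,000 cells/well respectively), carry an NF-κB/AP-1-inducible SEAP reporter. Conjugated TLR7-TLR2 agonists at final 10 μg/mL to 10 pg/ml, 24 h at 37° C. SEAP read colorimetrically as OD at 655 nm in detection medium.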

[2] = system: ISG54 promoter activity in B16-ISG54 reporter cells; assay: IFN response assay, B16-ISG54 luciferase reporter cells; assay type: cell-based, mouse; settings: in complexes with pDNA 3:24 (w:w), overnight, FIG. 6B
Description: The effect of the pDNA:TLR7-TLR2 polyamine molecules complexes on inducing an interferon response was examined. pDNA:TLR7-TLR2 polyamine molecules mixtures (pDNA:TLR7-TLR2 polyamine molecules ratio 3:24, w:w) in serum-free medium or 5% glucose were prepared as described above and added to IFN reporter cells. Luciferase reporter cell lines were used to assay interferon response. A plasmid containing an interferon-inducible luciferase reporter gene was introduced into mouse RAW 264.7 macrophages and mouse B16 melanoma cells, giving rise to the RAW-ISG54 and B16-ISG54 reporter cell lines respectively. Expression of the luciferase reporter gene by the plasmid is under the control of an interferon-inducible promoter (I-ISG54) comprising five interferon-stimulated response elements (ISRE) and the minimal promoter of the human ISG-54K (Interferon Stimulation of a Gene encoding a 54 kDa protein) gene. The ISG-54K gene is induced by interferon regulatory factor 3 (IRF3), which has a key involvement in […] responses (Grandvaux et al. 2002) and the minimal promoter of the human ISG-54K gene contains two ISRE sites and fully inducible by type I interferons (IFN-α and IFN-β) and interferon regulatory factors (IRFs) (Wathelet et al. 1988; Grandvaux et al. 2002).
The RAW-ISG54 and B16-ISG54 reporter cell lines were seeded onto 96 well microtiter plates at 100,000 cells per well and 75,000 cells per well respectively. Cells were cultured in DMEM supplemented with 10% (v/v) heat inactivated fetal bovine serum (30 min at 56° C.), 4.5 g/I glucose, 2 mM L-glutamine, 50 U/ml penicillin, 50 μg/ml streptomycin, 100 μg/ml Normocin™ (InvivoGen) together with pDNA:TLR7-TLR2 polyamine complexes at 37° C. overnight. pDNA:TLR7-TLR2 polyamine molecules complexes were prepared as described above prior to adding to the IFN reporter cells. The induced luciferase expression was assessed in the reporter cell lines using a coelenterazine-base luminescence assay reagent, the Quanti-Luc™ (InvivoGen). Secreted luciferase activity was determined by bioluminescence quantification of the cell culture media using a microplate luminometer (FLUOstar OPTIMA from BMG Labtech).

| ability to activate mTLR7 [1] | Compound | ability to induce an IFN response in B16-ISG54 reporter cells [2] |
| --- | --- | --- |
| activate mTLR7 | CCCCCCCCCCCCCCCC(=O)OCC(CSC[C@H](N)C(=O)N[C@@H](COC(=O)c1ccc(Cn2c(O)nc3c(N)nc(NCCCC)nc32)cc1)C(=O)NCCCNCCCCNCCCN)OC(=O)CCCCCCCCCCCCCCC (stereo partly drawn) [CL514, (6R,9S)-6,23-diamino-9-((4-((6-amino-2-(butylamino)-8-hydroxy-9H-purin-9-yl)methyl)benzoyloxy)methyl)-7,10-dioxo-4-thia-8,11,15,20-tetraazatricosane-1,2-diyl dipalmitate] | induce an IFN response in B16-ISG54 reporter cells |
| activate mTLR7 | CCCCCCCCCCCCCCCC(=O)OCC(CSC[C@H](N)C(=O)N[C@@H](CCC(=O)NCCCNCCCCNCCCN)C(=O)Nc1ccc(Cn2c(O)nc3c(N)nc(NCCCC)nc32)cc1)OC(=O)CCCCCCCCCCCCCCC (stereo partly drawn) [CL527, (6R,9S)-6,25-diamino-9-(4-((6-amino-2-(butylamino)-8-hydroxy-9H-purin-9-yl)methyl)phenylcarbamoyl)-7,12-dioxo-4-thia-8,13,17,22-tetraazapentacosane-1,2-diyl dipalmitate] | induce an IFN response in B16-ISG54 reporter cells |

Further lines, the compound ahead of its results:

| Compound | ability to activate mTLR7 [1] | ability to induce an IFN response in B16-ISG54 reporter cells [2] |
| --- | --- | --- |
| CCCCCCCCCCCCCCCC(=O)N[C@@H](CSCC(COC(=O)CCCCCCCCCCCCCCC)OC(=O)CCCCCCCCCCCCCCC)C(=O)N[C@@H](CO)C(=O)N[C@@H](CCCCN)C(=O)N[C@@H](CCCCN)C(=O)N[C@@H](CCCCN)C(=O)N[C@@H](CCCCN)C(=O)Nc1ccc(Cn2c(O)nc3c(N)nc(NCCCC)nc32)cc1 (stereo partly drawn) [CL534, ((6R,9S,12S,15S,18S,21S)-25-amino-21-(4-((6-amino-2-(butylamino)-8-hydroxy-9H-purin-9-yl)methyl)phenylcarbamoyl)-12,15,18-tris(4-aminobutyl)-9-(hydroxylmethyl)-7,10,13,16,19-pentaoxo-6-palmitamido-4-thia-8,11,14,17,20-pentaazapentacosane-1,2-diyl dipalmitate] | activate mTLR7 | – |
| CCCCCCCCCCCCCCCC(=O)OCC(CSC[C@H](N)C(=O)NCCCNCCCCNCCCNC(=O)CNC(=O)c1ccc(Cn2c(O)nc3c(N)nc(NCCCC)nc32)cc1)OC(=O)CCCCCCCCCCCCCCC (stereo partly drawn) [CL553, (20R)-20-amino-1-(4-((6-amino-2-(butylamino)-8-hydroxy-9H-purin-9-yl)methyl)phenyl)-1,4,19-trioxo-22-thia-2,5,9,14,18-pentaazapentacosane-24,25-diyl dipalmitate] | activate mTLR7 | induce an IFN response in B16-ISG54 reporter cells |
| (6S,9S,12S,15S,18S,21R)-6,25-diamino-21-(4-((6-amino-2-(butylamino)-8-hydroxy-9H-purin-9-yl)methyl)phenylcarbamoyl)-12,15,18-tris(4-aminobutyl)-9-(hydroxyl methyl)-7,10,13,16,19-pentaoxo-4-thia-8,11,14,17,20-pentaazapentacosane-1,2-diyl dipalmitate [CL413] | activate mTLR7 | induce an IFN response in B16-ISG54 reporter cells |
